Tests used:
[1] = molecular target: Epidermal growth factor receptor (Homo sapiens, UniProt P00533, L858R/T790M); experiment: Inhibition of human EGFR L858R/T790M mutant using poly[Glu:Tyr] (4:1) as substrate measured in presence of [gamma-33P]ATP by radiometric assay
[2] = molecular target: Epidermal growth factor receptor (Homo sapiens, UniProt P00533, C797S/L858R/T790M); experiment: Inhibition of human EGFR L858R/T790M/C797S mutant using poly[Glu:Tyr] (4:1) as substrate measured in presence of [gamma-33P]ATP by radiometric assay
Epidermal growth factor receptor (Homo sapiens, UniProt P00533, C797S/L858R/T790M), sequence (P00533 25-1210 T790M/C797S/L858R limits assumed): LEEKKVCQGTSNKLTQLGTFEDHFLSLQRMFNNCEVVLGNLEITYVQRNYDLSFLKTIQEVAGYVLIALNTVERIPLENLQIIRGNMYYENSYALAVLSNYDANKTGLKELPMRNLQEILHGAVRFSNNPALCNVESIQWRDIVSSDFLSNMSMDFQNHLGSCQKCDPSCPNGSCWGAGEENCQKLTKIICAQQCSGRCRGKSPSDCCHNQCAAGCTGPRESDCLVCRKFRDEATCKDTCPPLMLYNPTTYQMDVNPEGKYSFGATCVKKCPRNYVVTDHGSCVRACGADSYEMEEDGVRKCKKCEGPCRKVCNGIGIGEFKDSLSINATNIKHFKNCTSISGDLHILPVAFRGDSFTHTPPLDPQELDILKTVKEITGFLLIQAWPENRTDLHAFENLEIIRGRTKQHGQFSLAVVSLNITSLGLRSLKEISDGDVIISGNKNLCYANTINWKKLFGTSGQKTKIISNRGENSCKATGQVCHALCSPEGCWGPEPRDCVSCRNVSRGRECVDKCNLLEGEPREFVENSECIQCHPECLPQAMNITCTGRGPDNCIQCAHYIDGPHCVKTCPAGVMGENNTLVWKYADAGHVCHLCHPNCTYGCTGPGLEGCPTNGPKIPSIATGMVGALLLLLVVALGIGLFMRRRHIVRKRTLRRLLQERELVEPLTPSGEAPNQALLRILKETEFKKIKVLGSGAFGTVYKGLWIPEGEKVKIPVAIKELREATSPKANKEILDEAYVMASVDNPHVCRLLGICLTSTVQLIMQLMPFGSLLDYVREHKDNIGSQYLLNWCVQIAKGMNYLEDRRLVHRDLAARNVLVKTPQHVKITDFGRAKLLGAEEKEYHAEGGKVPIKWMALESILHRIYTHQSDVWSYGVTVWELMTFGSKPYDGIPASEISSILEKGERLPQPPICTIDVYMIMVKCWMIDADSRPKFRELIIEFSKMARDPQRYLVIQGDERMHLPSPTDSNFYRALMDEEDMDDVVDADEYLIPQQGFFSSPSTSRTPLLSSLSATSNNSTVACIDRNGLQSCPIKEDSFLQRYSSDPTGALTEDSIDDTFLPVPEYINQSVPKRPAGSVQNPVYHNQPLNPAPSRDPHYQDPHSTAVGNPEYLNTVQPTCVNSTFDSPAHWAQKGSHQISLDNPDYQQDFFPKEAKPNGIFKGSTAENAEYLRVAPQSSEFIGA

Epidermal growth factor receptor (Homo sapiens, UniProt P00533, L858R/T790M), sequence (P00533 25-1210 T790M/L858R limits assumed): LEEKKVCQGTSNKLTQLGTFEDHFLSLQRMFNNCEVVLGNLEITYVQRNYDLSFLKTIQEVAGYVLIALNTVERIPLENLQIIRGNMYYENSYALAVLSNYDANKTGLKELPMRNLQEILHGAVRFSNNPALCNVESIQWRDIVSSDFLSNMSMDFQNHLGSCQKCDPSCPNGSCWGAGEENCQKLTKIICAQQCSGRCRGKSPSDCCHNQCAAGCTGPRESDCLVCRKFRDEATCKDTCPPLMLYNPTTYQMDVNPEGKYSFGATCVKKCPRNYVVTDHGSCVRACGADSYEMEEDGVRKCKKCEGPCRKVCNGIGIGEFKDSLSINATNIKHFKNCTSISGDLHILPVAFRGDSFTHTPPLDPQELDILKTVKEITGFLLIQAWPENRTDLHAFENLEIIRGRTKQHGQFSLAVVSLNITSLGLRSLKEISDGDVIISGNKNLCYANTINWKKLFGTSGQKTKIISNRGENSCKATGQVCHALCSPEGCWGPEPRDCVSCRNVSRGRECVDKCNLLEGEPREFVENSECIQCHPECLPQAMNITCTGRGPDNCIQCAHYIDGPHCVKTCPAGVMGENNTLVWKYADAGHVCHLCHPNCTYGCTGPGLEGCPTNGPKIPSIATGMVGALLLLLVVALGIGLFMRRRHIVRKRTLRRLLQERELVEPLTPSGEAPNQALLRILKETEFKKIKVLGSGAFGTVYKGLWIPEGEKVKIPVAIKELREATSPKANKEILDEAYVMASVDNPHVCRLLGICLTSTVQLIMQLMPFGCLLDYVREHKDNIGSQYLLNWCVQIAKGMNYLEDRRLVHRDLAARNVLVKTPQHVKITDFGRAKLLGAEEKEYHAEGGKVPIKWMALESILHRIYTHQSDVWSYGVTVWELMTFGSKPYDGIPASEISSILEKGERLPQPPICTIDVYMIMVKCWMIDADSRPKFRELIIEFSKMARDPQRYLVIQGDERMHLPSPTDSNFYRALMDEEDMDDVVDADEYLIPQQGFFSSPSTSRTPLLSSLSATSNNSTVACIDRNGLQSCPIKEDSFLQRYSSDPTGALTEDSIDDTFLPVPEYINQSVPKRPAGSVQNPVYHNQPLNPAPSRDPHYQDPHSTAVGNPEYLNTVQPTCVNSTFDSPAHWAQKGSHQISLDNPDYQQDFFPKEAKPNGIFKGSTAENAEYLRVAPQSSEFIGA

| IC50 [1] [nM] | IC50 [2] [nM] | SMILES |
| --- | --- | --- |
| 111 | > 5000 | C=CC(=O)Nc1ccc(OC)c(Nc2cc(-c3c(-c4ccc(F)cc4)nc(SC)n3C)ccn2)c1 |
| 1 | > 5000 | C=CC(=O)Nc1ccc(OC)c(Nc2cc(-c3nc(SC)n(C)c3-c3ccc(F)cc3)ccn2)c1 |

Reference: ChEMBL document CHEMBL4354875, “Structural Basis for EGFR Mutant Inhibition by Trisubstituted Imidazole Inhibitors” (J Med Chem, 2020)
